Test results published in patent US20260242390A1, “TOTAL SYNTHESES OF PORTIMINE A AND ANALOGUES THEREOF AS SMALL MOLECULE MODULATORS OF NMD3” (priority 2023, published 2026).

System: Bcl-xl
Assay: Bcl-xl protein level in cells
Assay type: cell-based, human
Description: FIG. 6. Portimine A inhibits S phase entry in Jurkat cells. Portimine A downregulates NMD3 at protein level but upregulates in mRNA level in cells, as well as some essential apoptosis proteins. […] Protein degradation of p53, Mcl1, Bid, Bim, Noxa can be rescued by MG132 or Epoxomicin. (B) NMD3 mRNA increased after PA treatment, but not ePA control compound. Jurkat cells were treated with indicated compounds for 24 hr; Cells were then fixed and perform Propidium Iodide staining.
• 1) Portimine A and its functional analogs show stereo-selective acute toxicity in cancer cells (FIG. 1). […] (B) Structure of portimine related analogs: phenyl-portimine A (Ph-PA, 36) and epi-portimine A (ePA, 38). Structure of fully functionalized portimine A-based epimeric probe pair: portimine A-diazirine-alkyne (PA-DA, 35-2) and epi-portimine A-diazirine-alkyne (ePA-DA, 35-1). (C) Cell viability analysis of portimine A and analogs. Jurkat cells were treated with increasing concentrations of portimine A and analogs for 24 hours. All presented data as mean of biological replicated experiments (n=3). […] Jurkat cells were treated with portimine A or analogs for 12 hours at 10 nM. […] Cell lysates were fractionated by sucrose gradient (5-50%) and each fraction were analyzed by western blot. eIF6 levels increase in 60S subunit fraction and decrease in ribosome-free fractions after PA treatment. […]

C=CC1=C[C@@H]2[C@@H]3O[C@]4(CC[C@H](O4)C(C)C[C@@H](O)C3=O)CC(O)C3=NCC[C@@]32CC1 (stereo partly shown) [PA, portimine A]
Bcl-xl protein level after treatment: downregulated
